Assay results reported in article PMC5218480 (PLoS ONE, 2017).

System: MV-4-11 cells
Experiment: Gene expression microarray analysis (Affymetrix PrimeView) and GSEA
Format: cell-based, human
Set-up: RFU PODN (11730768_x_at) / Fold change /veh PODN (11730768_x_at) / RFU LINC00158 (11744669_a_at) / Fold change /veh LINC00158 (11744669_a_at) / RFU DUSP10 (11751237_a_at) / Fold change /veh DUSP10 (11751237_a_at) / RFU ID3 (11757404_x_at) / Fold change /veh ID3 (11757404_x_at) / RFU PLEKHG5 (11737974_s_at) / Fold change /veh PLEKHG5 (11737974_s_at) / RFU LRRC4B (11730491_at) / Fold change /veh LRRC4B (11730491_at) / RFU GIMAP4 (11747438_a_at) / Fold change /veh GIMAP4 (11747438_a_at) / RFU KRT8 (11758183_x_at) / Fold change /veh KRT8 (11758183_x_at) / RFU CNN1 (11734310_a_at) / Fold change /veh CNN1 (11734310_a_at) / RFU VPS37D (11726825_at) / Fold change /veh VPS37D (11726825_at) / RFU C10orf10 (11716522_x_at) / Fold change /veh C10orf10 (11716522_x_at) / RFU KIR2DL2 /// KIR2DL4 /// KIR2DL5A /// KIR2DL5B /// KIR2DS1 /// KIR2DS2 /// KIR2DS3 /// KIR2DS4 /// KIR3DL3 /// KIR3DL3 /// KIR3DS1 (11738374_at) / Fold change /veh KIR2DL2 /// KIR2DL4 /// KIR2DL5A /// KIR2DL5B /// KIR2DS1 /// KIR2DS2 /// KIR2DS3 /// KIR2DS4 /// KIR3DL3 /// KIR3DL3 /// KIR3DS1 (11738374_at) / RFU C1QL1 (11718748_at) / Fold change /veh C1QL1 (11718748_at) / RFU TMPRSS4 (11747572_a_at) / Fold change /veh TMPRSS4 (11747572_a_at) / RFU HAMP (11756126_x_at) / Fold change /veh HAMP (11756126_x_at) / RFU RNFT2 (11725882_a_at) / Fold change /veh RNFT2 (11725882_a_at) / RFU NR4A2 (11747474_a_at) / Fold change /veh NR4A2 (11747474_a_at) / RFU ABCC12 (11746883_a_at) / Fold change /veh ABCC12 (11746883_a_at) / RFU TMEM136 (11760407_x_at) / Fold change /veh TMEM136 (11760407_x_at) / RFU CLDN22 /// WWC2 (11732394_at) / Fold change /veh CLDN22 /// WWC2 (11732394_at) / RFU HLA-DPB1 (11760878_x_at) / Fold change /veh HLA-DPB1 (11760878_x_at) / RFU SPINT1 (11716480_a_at) / Fold change /veh SPINT1 (11716480_a_at) / RFU GAP43 (11754022_s_at) / Fold change /veh GAP43 (11754022_s_at) / RFU A4GNT (11735810_at) / Fold change /veh A4GNT (11735810_at) / RFU PRB3 (11715151_x_at) / Fold change /veh PRB3 (11715151_x_at) / RFU TUBB4B (11761932_at) / Fold change /veh TUBB4B (11761932_at) / RFU CAPN14 (11732068_a_at) / Fold change /veh CAPN14 (11732068_a_at) / RFU TMCC2 (11721928_a_at) / Fold change /veh TMCC2 (11721928_a_at) / RFU IRGQ (11745062_a_at) / Fold change /veh IRGQ (11745062_a_at) / RFU FAM174B (11720279_a_at) / Fold change /veh FAM174B (11720279_a_at) / RFU TMPRSS4 (11748680_a_at) / Fold change /veh TMPRSS4 (11748680_a_at) / RFU FAM212B (11763350_a_at) / Fold change /veh FAM212B (11763350_a_at) / RFU PLEKHG5 (11743358_a_at) / Fold change /veh PLEKHG5 (11743358_a_at) / RFU ZSCAN30 (11745921_a_at) / Fold change /veh ZSCAN30 (11745921_a_at) / RFU CMKLR1 (11741424_a_at) / Fold change /veh CMKLR1 (11741424_a_at) / RFU LOC101060620 /// MAPK8IP1 (11723275_at) / Fold change /veh LOC101060620 /// MAPK8IP1 (11723275_at) / RFU SPTSSB (11747773_x_at) / Fold change /veh SPTSSB (11747773_x_at) / RFU PRSS12 (11739890_at) / Fold change /veh PRSS12 (11739890_at) / RFU BIN1 (11741810_x_at) / Fold change /veh BIN1 (11741810_x_at) / RFU WNT11 (11732464_a_at) / Fold change /veh WNT11 (11732464_a_at) / RFU C10orf10 (11716521_a_at) / Fold change /veh C10orf10 (11716521_a_at) / RFU C5orf56 (11738089_at) / Fold change /veh C5orf56 (11738089_at) / RFU CYB561 (11721691_x_at) / Fold change /veh CYB561 (11721691_x_at) / RFU ANKRD19P (11752326_a_at) / Fold change /veh ANKRD19P (11752326_a_at) / RFU OR2T12 /// OR2T33 /// OR2T8 (11738714_s_at) / Fold change /veh OR2T12 /// OR2T33 /// OR2T8 (11738714_s_at) / RFU VCAN (11748164_a_at) / Fold change /veh VCAN (11748164_a_at) / RFU JSRP1 (11732532_at) / Fold change /veh JSRP1 (11732532_at) / RFU KRTAP10-11 (11738290_x_at) / Fold change /veh KRTAP10-11 (11738290_x_at) / RFU MYO3A (11730013_a_at) / Fold change /veh MYO3A (11730013_a_at) / RFU EBF3 (11725865_a_at) / Fold change /veh EBF3 (11725865_a_at) / RFU CAMK2N1 (11719241_x_at) / Fold change /veh CAMK2N1 (11719241_x_at) / RFU C5orf56 (11738088_a_at) / Fold change /veh C5orf56 (11738088_a_at) / RFU OLFML3 (11715873_a_at) / Fold change /veh OLFML3 (11715873_a_at) / RFU LOC100653217 /// NTM (11731650_a_at) / Fold change /veh LOC100653217 /// NTM (11731650_a_at) / RFU MAPK11 (11762145_a_at) / Fold change /veh MAPK11 (11762145_a_at) / RFU FIZ1 (11724087_x_at) / Fold change /veh FIZ1 (11724087_x_at) / RFU OASL (11726364_x_at) / Fold change /veh OASL (11726364_x_at) / RFU SOX15 (11748057_x_at) / Fold change /veh SOX15 (11748057_x_at) / RFU CD79A (11719716_a_at) / Fold change /veh CD79A (11719716_a_at) / RFU HIST1H1D (11736915_at) / Fold change /veh HIST1H1D (11736915_at) / RFU CASKIN2 (11723855_a_at) / Fold change /veh CASKIN2 (11723855_a_at) / RFU LOC730098 (11760151_x_at) / Fold change /veh LOC730098 (11760151_x_at) / RFU OR4N2 (11742367_at) / Fold change /veh OR4N2 (11742367_at) / RFU PRRT2 (11749266_a_at) / Fold change /veh PRRT2 (11749266_a_at) / RFU SNX32 (11753110_a_at) / Fold change /veh SNX32 (11753110_a_at) / RFU CDHR5 (11726645_a_at) / Fold change /veh CDHR5 (11726645_a_at) / RFU RCAN1 (11760418_a_at) / Fold change /veh RCAN1 (11760418_a_at) / RFU FAM167A (11723789_a_at) / Fold change /veh FAM167A (11723789_a_at) / RFU FAM26E (11764081_at) / Fold change /veh FAM26E (11764081_at) / RFU ISYNA1 (11749810_s_at) / Fold change /veh ISYNA1 (11749810_s_at) / RFU ACY1 (11761880_at) / Fold change /veh ACY1 (11761880_at) / RFU 11764098_at / Fold change /veh 11764098_at / RFU SAMD14 (11745864_x_at) / Fold change /veh SAMD14 (11745864_x_at) / RFU NPB (11741838_a_at) / Fold change /veh NPB (11741838_a_at) / RFU TMPRSS6 (11731388_a_at) / Fold change /veh TMPRSS6 (11731388_a_at) / RFU KRTAP10-2 (11738614_at) / Fold change /veh KRTAP10-2 (11738614_at) / RFU ARHGAP8 /// PRR5-ARHGAP8 (11727945_x_at) / Fold change /veh ARHGAP8 /// PRR5-ARHGAP8 (11727945_x_at) / RFU KRTAP5-7 /// NADSYN1 (11734609_at) / Fold change /veh KRTAP5-7 /// NADSYN1 (11734609_at) / RFU RASL12 (11751679_a_at) / Fold change /veh RASL12 (11751679_a_at) / RFU CDKN2B (11736163_a_at) / Fold change /veh CDKN2B (11736163_a_at) / RFU PRF1 (11729649_at) / Fold change /veh PRF1 (11729649_at) / RFU, ZNF638 /// ZNF638-IT1 / Fold change vs veh, ZNF638 /// ZNF638-IT1 / RFU, PANK3 / Fold change vs veh, PANK3 / RFU, SH3YL1 / Fold change vs veh, SH3YL1 / RFU, ZEB2 / Fold change vs veh, ZEB2 / RFU, NRIP1 / Fold change vs veh, NRIP1 / RFU, PTTG1IP / Fold change vs veh, PTTG1IP / RFU, CAPN2 / Fold change vs veh, CAPN2 / RFU, MED14 / Fold change vs veh, MED14 / RFU, SNORA58 / Fold change vs veh, SNORA58 / RFU, C1orf63 / Fold change vs veh, C1orf63 / RFU, LRRFIP1 / Fold change vs veh, LRRFIP1 / RFU, NDUFAF7 / Fold change vs veh, NDUFAF7 / RFU, SLC12A2 / Fold change vs veh, SLC12A2 / RFU, IBTK / Fold change vs veh, IBTK / RFU, ESF1 / Fold change vs veh, ESF1 / Fold change vs veh, TMEM50B / RFU, TAOK1 / Fold change vs veh, TAOK1 / RFU, ACBD3 / Fold change vs veh, ACBD3 / RFU, TMA16 / Fold change vs veh, TMA16 / RFU, RWDD3 / Fold change vs veh, RWDD3 / RFU, BCAT1 / Fold change vs veh, BCAT1 / RFU, EDEM3 / Fold change vs veh, EDEM3 / RFU, TMEM33 / Fold change vs veh, TMEM33 / RFU, WDR75 / Fold change vs veh, WDR75 / RFU, AHCTF1 / Fold change vs veh, AHCTF1 / RFU, TFRC / Fold change vs veh, TFRC / RFU, ZDHHC17 / Fold change vs veh, ZDHHC17 / RFU, NOM1 / Fold change vs veh, NOM1 / RFU, ARL8B / Fold change vs veh, ARL8B / RFU, ZBTB11 / Fold change vs veh, ZBTB11 / RFU, TAMM41 / Fold change vs veh, TAMM41 / RFU, KIAA1704 /// LOC100996395 / Fold change vs veh, KIAA1704 /// LOC100996395 / RFU, ING1 / Fold change vs veh, ING1 / RFU, TRMT61B / Fold change vs veh, TRMT61B / RFU, FUBP3 / Fold change vs veh, FUBP3 / RFU, TP53 / Fold change vs veh, TP53 / RFU, TNKS2 / Fold change vs veh, TNKS2 / RFU, ZFP14 / Fold change vs veh, ZFP14 / RFU, ACTR2 / Fold change vs veh, ACTR2 / RFU, PPP3R1 / Fold change vs veh, PPP3R1 / RFU, PIK3R1 / Fold change vs veh, PIK3R1 / RFU, HNRNPA1 / Fold change vs veh, HNRNPA1 / RFU, RNF170 / Fold change vs veh, RNF170 / RFU, ZNF28 / Fold change vs veh, ZNF28 / RFU, RNGTT / Fold change vs veh, RNGTT / RFU, OGT / Fold change vs veh, OGT / RFU, BRD1 / Fold change vs veh, BRD1 / RFU, MARS / Fold change vs veh, MARS / RFU, ZNF655 / Fold change vs veh, ZNF655 / RFU, FAHD1 / Fold change vs veh, FAHD1 / RFU, BDP1 / Fold change vs veh, BDP1 / RFU, LRRCC1 / Fold change vs veh, LRRCC1 / RFU, ARID1A / Fold change vs veh, ARID1A / RFU, ZNF146 / Fold change vs veh, ZNF146 / RFU, ZNF330 / Fold change vs veh, ZNF330 / RFU, GPN3 / Fold change vs veh, GPN3 / RFU, C9orf123 / Fold change vs veh, C9orf123 / RFU, N4BP2L2 / Fold change vs veh, N4BP2L2 / RFU, ARFIP1 / Fold change vs veh, ARFIP1 / RFU, FAM179B / Fold change vs veh, FAM179B / RFU, BCL10 / Fold change vs veh, BCL10 / RFU, UHRF1BP1L / Fold change vs veh, UHRF1BP1L / RFU, BET1 / Fold change vs veh, BET1 / RFU, CNOT2 / Fold change vs veh, CNOT2 / RFU, ZNF268 / Fold change vs veh, ZNF268 / Fold change vs veh, ZNF507 / RFU, DGCR2 / Fold change vs veh, DGCR2 / RFU, WDSUB1 / Fold change vs veh, WDSUB1 / Fold change vs veh, HSP90B1 /// MIR3652 / RFU, ADSS / Fold change vs veh, ADSS / RFU, GK / Fold change vs veh, GK / RFU, ZNF148 / Fold change vs veh, ZNF148 / RFU, TAF9 / Fold change vs veh, TAF9 / RFU, SLC1A5 / Fold change vs veh, SLC1A5 / RFU, SLMO2 / Fold change vs veh, SLMO2 / RFU, ABCC4 / Fold change vs veh, ABCC4 / RFU, LOC101060439 /// RAP1B / Fold change vs veh, LOC101060439 /// RAP1B / RFU, RFX7 / Fold change vs veh, RFX7 / RFU, GTPBP10 / Fold change vs veh, GTPBP10 / RFU, CNEP1R1 / Fold change vs veh, CNEP1R1 / RFU, BIVM-ERCC5 /// ERCC5 / Fold change vs veh, BIVM-ERCC5 /// ERCC5 / RFU, ILF3 / Fold change vs veh, ILF3 / RFU 11762660_at / Fold change /veh 11762660_at / RFU VCAN (11757783_s_at) / Fold change /veh VCAN (11757783_s_at) / RFU DDX43 (11728927_at) / Fold change /veh DDX43 (11728927_at) / RFU KRT8 (11758188_x_at) / Fold change /veh KRT8 (11758188_x_at) / RFU NKD1 (11759106_at) / Fold change /veh NKD1 (11759106_at) / RFU SRD5A1 (11742802_a_at) / Fold change /veh SRD5A1 (11742802_a_at) / RFU TPSAB1 /// TPSB2 (11721975_s_at) / Fold change /veh TPSAB1 /// TPSB2 (11721975_s_at) / RFU GSTM3 (11746129_a_at) / Fold change /veh GSTM3 (11746129_a_at) / RFU IL23R (11737362_x_at) / Fold change /veh IL23R (11737362_x_at) / RFU TMEM51 (11727254_a_at) / Fold change /veh TMEM51 (11727254_a_at) / RFU PIWIL2 (11732686_x_at) / Fold change /veh PIWIL2 (11732686_x_at) / RFU ORM1 (11744905_x_at) / Fold change /veh ORM1 (11744905_x_at) / RFU CCDC152 (11743942_at) / Fold change /veh CCDC152 (11743942_at) / RFU ECM1 (11717891_a_at) / Fold change /veh ECM1 (11717891_a_at) / RFU IL23R (11748794_a_at) / Fold change /veh IL23R (11748794_a_at) / RFU TNFAIP8L3 (11732012_x_at) / Fold change /veh TNFAIP8L3 (11732012_x_at) / RFU MBOAT4 (11741988_at) / Fold change /veh MBOAT4 (11741988_at) / RFU 11764193_at / Fold change /veh 11764193_at / RFU TMEM53 (11763286_at) / Fold change /veh TMEM53 (11763286_at) / RFU MAGEB2 (11727129_at) / Fold change /veh MAGEB2 (11727129_at) / RFU TMEM200A (11744735_a_at) / Fold change /veh TMEM200A (11744735_a_at) / RFU CCDC152 (11751479_a_at) / Fold change /veh CCDC152 (11751479_a_at) / RFU FAM211A (11726209_a_at) / Fold change /veh FAM211A (11726209_a_at) / RFU RGS16 (11746705_a_at) / Fold change /veh RGS16 (11746705_a_at) / RFU VCAN (11755009_s_at) / Fold change /veh VCAN (11755009_s_at) / RFU RHOB (11743442_s_at) / Fold change /veh RHOB (11743442_s_at) / RFU RGS16 (11720943_a_at) / Fold change /veh RGS16 (11720943_a_at) / RFU RGS16 (11720944_at) / Fold change /veh RGS16 (11720944_at) / RFU, VPS4B / Fold change vs veh, VPS4B / RFU, CREB1 / Fold change vs veh, CREB1 / RFU, DNAJC13 / Fold change vs veh, DNAJC13 / RFU, GNAQ / Fold change vs veh, GNAQ / RFU, CDK5R1 / Fold change vs veh, CDK5R1 / RFU, ZRANB3 / Fold change vs veh, ZRANB3 / RFU, CUL4A / Fold change vs veh, CUL4A / RFU, CCNY / Fold change vs veh, CCNY / RFU, UFL1 / Fold change vs veh, UFL1 / RFU, COG3 / Fold change vs veh, COG3 / RFU, DIAPH2 / Fold change vs veh, DIAPH2 / RFU, SKA2 / Fold change vs veh, SKA2 / RFU, AFF3 / Fold change vs veh, AFF3 / RFU, LMF1 / Fold change vs veh, LMF1 / RFU, IPO11 / Fold change vs veh, IPO11 / RFU, DFFB / Fold change vs veh, DFFB / RFU, FOXP1 / Fold change vs veh, FOXP1 / RFU, CARD8 / Fold change vs veh, CARD8 / RFU, STRN3 / Fold change vs veh, STRN3 / RFU, ADK / Fold change vs veh, ADK / RFU, RASSF2 / Fold change vs veh, RASSF2 / RFU, WIPF1 / Fold change vs veh, WIPF1 / RFU, LARP1B / Fold change vs veh, LARP1B / RFU, RASA1 / Fold change vs veh, RASA1 / RFU, RB1 / Fold change vs veh, RB1 / RFU, PPFIA1 / Fold change vs veh, PPFIA1 / RFU, MAT2A / Fold change vs veh, MAT2A / RFU, CCT5 / Fold change vs veh, CCT5 / RFU, WDR92 / Fold change vs veh, WDR92 / RFU, CUX1 / Fold change vs veh, CUX1 / RFU, TTC7A / Fold change vs veh, TTC7A / RFU, TMEM135 / Fold change vs veh, TMEM135 / RFU, DEPTOR / Fold change vs veh, DEPTOR / RFU, CPM / Fold change vs veh, CPM / RFU, DNAJB6 / Fold change vs veh, DNAJB6 / RFU, CACNA2D3 / Fold change vs veh, CACNA2D3 / RFU, DTX4 / Fold change vs veh, DTX4 / RFU, TFCP2 / Fold change vs veh, TFCP2 / RFU, GMCL1 /// GMCL1P1 / Fold change vs veh, GMCL1 /// GMCL1P1 / RFU, AEBP2 / Fold change vs veh, AEBP2 / RFU, SNHG1 /// SNORD22 /// SNORD25 /// SNORD26 /// SNORD27 /// SNORD28 /// SNORD29 /// SNORD31 / Fold change vs veh, SNHG1 /// SNORD22 /// SNORD25 /// SNORD26 /// SNORD27 /// SNORD28 /// SNORD29 /// SNORD31 / Fold change (Aza/veh), C12orf56 (ProbeSet 11735607_a_at) / Fold change (ACY-1035/veh), C12orf56 (ProbeSet 11735607_a_at) / Fold change (Aza/veh), FGFR1OP (ProbeSet 11751329_s_at) / Fold change (ACY-1035/veh), FGFR1OP (ProbeSet 11751329_s_at) / Fold change (Aza/veh), VPS36 (ProbeSet 11739960_a_at) / Fold change (ACY-1035/veh), VPS36 (ProbeSet 11739960_a_at) / RFU SYPL1 (11715823_x_at) / Fold change /veh SYPL1 (11715823_x_at) / RFU IGFBP7 (11715501_s_at) / Fold change /veh IGFBP7 (11715501_s_at) / RFU REEP3 (11722064_at) / Fold change /veh REEP3 (11722064_at) / RFU IGLL1 (11728026_x_at) / Fold change /veh IGLL1 (11728026_x_at): dose or concentration left out as unconfirmed
Details: MV-4-11 cells, 48 hours

Structure (SMILES): Nc1ccc(-c2cccs2)cc1NC(=O)c1ccc2c(c1)cc(C1CC1)n2CCN1CCOCC1 [ACY-1035]
- RFU CCDC152 (11751479_a_at): 4.13 RFU
